Reference: patent publication US20210386367A1, “DEVICES AND SYSTEMS FOR GASTROINTESTINAL MICROBIOME DETECTION AND MANIPULATION” (Progenity, Inc., priority 2018, published 2021)
≈ marks a conversion by molar mass, not a printed value. Entries after “also recorded” stand apart in the source; their conditions may differ. Read-outs that look alike come from different tables or passages of the source.

How the values were obtained:
Assay type in all cases: cell-based
Veillonella spp. = test: Agar dilution MIC, 30 clinical isolates; conditions: for Mode: modal MIC
Escherichia coli = test: Broth microdilution MIC, 50 clinical isolates (incl. ESBL, one NDM-1)
Method: Minimal inhibitory concentration (MIC) values were determined by broth microdilution or agar dilution in accordance with guidelines from the Clinical and Laboratory Standards Institute (CLSI; (1) “Methods for Dilution Antimicrobial Susceptibility Tests for Bacteria That Grow Aerobically; Approved Standard; 11th ed.” CLSI standard M07-A11, 2018; (2) “Performance Standards for Antimicrobial Susceptibility Testing; Twenty-Eighth Informational Supplement,” CLSI document M100-S28, 2018; and (3) “Methods for Antimicrobial Susceptibility Testing of Anaerobic Bacteria; Approved Standard—Eighth Edition,” CLSI document M11-A8, 2012).
Tested aerobically by broth microdilution: • Escherichia coli, n=50 • Klebsiella spp., n=50 • Pseudomonas aeruginosa, n=50 • Streptococcus spp., n=50 • Staphylococcus aureus, n=50 • Enterococcus faecalis, n=50 • Enterobacter aerogenes, n=50 • Proteus mirabilis, n=50
Broth microdilution testing of aerobic bacteria was conducted in cation-adjusted Mueller Hinton broth (MHBII). For testing streptococci, lysed horse blood (LHB) was added to MHBII broth at a final concentration of 3%. Where LHB was used, it was added after filtering.
Broth microdilution susceptibility testing in 96-well microplates was conducted in accordance with CLSI methods (1) and (2). Automated liquid handlers were used to conduct serial dilutions and liquid transfers, including the Multidrop 384 (Labsystems, Helsinki, Finland), Biomek 2000, and the Biomek FX (Beckman Coulter, Fullerton, Calif.). All wells in columns 2 through 12 of a standard 96-well microdilution plate (Costar 3795) were filled with 150 μL of the appropriate diluent. Then, 300 μL of the test agents were added to the wells of column 1 of the plates at 100× the highest final concentration to be tested. Serial two-fold dilutions were made across the rows through column 11 using the Biomek 2000. The wells of column 12 contained no drug and served as the growth control wells. This plate served as the “mother plate” from which MIC assay plates or “daughter plates” were made.
The daughter plates were loaded with 190 μL per well of the appropriate medium using the Multidrop 384. The daughter plates were created using the Biomek FX which transferred 2 μL of drug solution from each well of a mother plate to each corresponding well of the daughter plate in a single step. A standardized inoculum of each test organism was prepared per CLSI methods (1) to equal a 0.5 McFarland standard, followed by a dilution of 1:20 for aerobes and 1:10 for anaerobes. The plates were then inoculated with 10 μL of the diluted inoculum using the Biomek 2000 from low to high drug concentration, resulting in a final concentration of approximately 5×10^5 CFU/mL per well. An un-inoculated plate was incubated in parallel for each medium for the purpose of assessing solubility of the drug in the test media.
Inoculated plates were stacked 3 or 4 high, covered with a sterile lid on the top plate, placed into boxes with CO2 planchets (streptococci) or plastic bags (all other isolates). Plates were incubated at 35° C. for 16-24 hr in ambient air for aerobes or for 42-48 hr in the anaerobic environment of the Bactron II anaerobe chamber (Sheldon Manufacturing Co.; Cornelius, Oreg.). Following incubation, the microplates were removed from the incubator and viewed from the bottom using a plate viewer. The MIC values were read and recorded as the lowest concentration of drug that inhibited visible growth of the organism as per CLSI methods (1) and (2).

Streptococcus spp. = test: Spontaneous mutation frequency assay; conditions: for Spontaneous Mutation Frequency: selection at 4× and 8× MIC
Method: Initial values of the MIC were determined by agar dilution in accordance with guidelines from the Clinical and Laboratory Standards Institute (CLSI; (1) “Methods for Dilution Antimicrobial Susceptibility Tests for Bacteria That Grow Aerobically; Approved Standard; 11th ed.,” CLSI standard M07, 2018; (2) “Methods for Antimicrobial Susceptibility Testing of Anaerobic Bacteria; Approved Standard—Eighth Edition,” CLSI document M11-A8, 2012.).
The agar plates were prepared by mixing a ratio of 1.0 mL of concentrated drug to 49.0 mL of the appropriate molten (47° C.) agar; the drug-supplemented agar was mixed, poured into 15-by-150 mm petri dishes and allowed to solidify and dry at room temperature prior to inoculation. […] Each plate was allowed to cool at room temperature for at least 1 hr.
The isolates were streaked onto the appropriate agar medium and incubated for 20 hr (aerobes) or 48 hr (Bacteroides under anaerobic conditions). Using a sterile swab, several well-isolated colonies were removed and resuspended in sterile saline at a heavy cell density. Each plate was inoculated with 0.5 mL of the cell suspension (each test concentration was inoculated in duplicate). The target inoculum for each spontaneous mutation plate was 10^9-10 CFU. In addition, a portion of the inoculum from each isolate was enumerated by making dilutions, spreading on agar and counting colonies.
Once the inoculum was absorbed into the agar, the plates were incubated at 35° C. Aerobes were examined at 24 and 48 hr, and resulting colonies were counted. Bacteroides were incubated anaerobically for 48-72 hr in the anaerobe chamber and colonies were counted.
Colony counts from plates used to enumerate the initial inoculum density and from the resulting spontaneous mutation frequency test plates were determined. The inoculum size was calculated as CFU inoculated per plate. The spontaneous mutation frequency was calculated using the counts from duplicate spontaneous mutation assay test plates as follows:
If there were no colonies on the antibiotic selection plates, the spontaneous mutation frequency was reported as less than the frequency observed with one colony to indicate that the spontaneous mutation frequency was less than the limit of detection (one CFU). […] The mutation prevention concentration (MPC) was reported as the lowest concentration for which no mutants were selected.

[1] = 30 Veillonella spp. clinical isolates
[2] = Escherichia coli, read-out: MIC50
[3] = Escherichia coli, read-out: MIC90

## Cc1ncc([N+](=O)[O-])n1CCO [MTZ]
Veillonella spp.; [1]
  % R: 17%
  % S: 83%
  MIC50: 4 µg/mL (≈ 23.4 µM)
  MIC90: >32 µg/mL
  Mode: 4 µg/mL

## piperacillin/tazobactam [piperacillin-tazobactam]
Escherichia coli
  % I: 12% ^
  % R: 8%
  % S: 80%
  MIC50: 2 µg/mL
  MIC90: 64 µg/mL
  Mode: 2 µg/mL
Escherichia coli; 0.5 μg/mL
  Cumulative percentage of isolates inhibited at MIC: 6.0%
  Number of test isolates at MIC: 2
Escherichia coli; 1 μg/mL
  Cumulative percentage of isolates inhibited at MIC: 26.0%
  Number of test isolates at MIC: 10
Escherichia coli; 2 μg/mL
  Cumulative percentage of isolates inhibited at MIC: 64.0%
  Number of test isolates at MIC: 19
Escherichia coli; 4 μg/mL
  Cumulative percentage of isolates inhibited at MIC: 74.0%
  Number of test isolates at MIC: 5
Escherichia coli; 8 μg/mL
  Cumulative percentage of isolates inhibited at MIC: 78.0%
  Number of test isolates at MIC: 2
Escherichia coli; 16 μg/mL
  Cumulative percentage of isolates inhibited at MIC: 80.0%
  Number of test isolates at MIC: 1
Escherichia coli; 32 μg/mL
  Cumulative percentage of isolates inhibited at MIC: 86.0%
  Number of test isolates at MIC: 3
Escherichia coli; 64 μg/mL
  Cumulative percentage of isolates inhibited at MIC: 92.0%
  Number of test isolates at MIC: 3
Escherichia coli; 128 μg/mL
  Cumulative percentage of isolates inhibited at MIC: 96.0%
  Number of test isolates at MIC: 2
Escherichia coli; >128 μg/mL
  Cumulative percentage of isolates inhibited at MIC: 100.0%
  Number of test isolates at MIC: 2
Escherichia coli; ≤[…]
  Cumulative percentage of isolates inhibited at MIC: 2.0%
  Number of test isolates at MIC: 1

## CO[C@H]1/C=C/O[C@@]2(C)Oc3c(C)c(O)c4c(O)c(c5c(nc6cc(C)ccn65)c4c3C2=O)NC(=O)/C(C)=C\C=C\[C@H](C)[C@H](O)[C@@H](C)[C@@H](O)[C@@H](C)[C@H](OC(C)=O)[C@@H]1C [rifaximin]
Escherichia coli
  MIC50: 8 µg/mL (≈ 10.2 µM)
  MIC90: 16 µg/mL (≈ 20.4 µM)
  MIC range: 1 to 32 µg/mL
  Mode: 8 µg/mL
Escherichia coli; 1 μg/mL
  Cumulative percentage of isolates inhibited at MIC: 2.0%
  Number of test isolates at MIC: 1
Escherichia coli; 2 μg/mL
  Cumulative percentage of isolates inhibited at MIC: 6.0%
  Number of test isolates at MIC: 2
Escherichia coli; 4 μg/mL
  Cumulative percentage of isolates inhibited at MIC: 34.0%
  Number of test isolates at MIC: 14
Escherichia coli; 8 μg/mL
  Cumulative percentage of isolates inhibited at MIC: 80.0%
  Number of test isolates at MIC: 23
Escherichia coli; 16 μg/mL
  Cumulative percentage of isolates inhibited at MIC: 98.0%
  Number of test isolates at MIC: 9
Escherichia coli; 32 μg/mL
  Cumulative percentage of isolates inhibited at MIC: 100.0%
  Number of test isolates at MIC: 1
Veillonella spp.
  MIC50: 4 µg/mL (≈ 5.09 µM)
  MIC90: 8 µg/mL (≈ 10.2 µM)
Veillonella spp.; [1]
  MIC50: 4 µg/mL (≈ 5.09 µM)
  MIC90: 8 µg/mL (≈ 10.2 µM)
  MIC range: 0.12 to 16 µg/mL
  Mode: 2 µg/mL
Streptococcus spp.
  Spontaneous Mutation Frequency: ≥ 2.77×10^−8
Streptococcus spp.; listed as rifampin
  Spontaneous Mutation Frequency: ~10^−8

## C[C@@H](O)[C@H]1C(=O)N2C(C(=O)O)=C(S[C@@H]3CN[C@H](C(=O)N(C)C)C3)[C@H](C)[C@H]12 [meropenem]
Escherichia coli
  % R: 2%
  % S: Ninety-eight
  Mode: 0.015 µg/mL
  relative activity among drugs tested: most active drug tested; also recorded: most active agent
Escherichia coli; 0.015 μg/mL
  Cumulative percentage of isolates inhibited at MIC: 78.0%
  Number of test isolates at MIC: 21
Escherichia coli; 0.03 μg/mL
  Cumulative percentage of isolates inhibited at MIC: 90.0%
  Number of test isolates at MIC: 6
Escherichia coli; 0.06 μg/mL
  Cumulative percentage of isolates inhibited at MIC: 92.0%
  Number of test isolates at MIC: 1
Escherichia coli; >8 μg/mL
  Cumulative percentage of isolates inhibited at MIC: 100.0%
  Number of test isolates at MIC: 1
Escherichia coli; [2]
  MIC50: 0.015 µg/mL (≈ 0.0391 µM)
Escherichia coli; [3]
  MIC90: 0.03 µg/mL (≈ 0.0782 µM)
Escherichia coli; […]
  Cumulative percentage of isolates inhibited at MIC: 98.0%
  Number of test isolates at MIC: 3
Escherichia coli; listed as MEM
  % R: 2%
  % S: 98%
Escherichia coli; ≤0.008 μg/mL
  Cumulative percentage of isolates inhibited at MIC: 36.0%
  Number of test isolates at MIC: 18
Veillonella spp.
  isolates with intermediate resistance: Twenty-three
  relative activity among drugs tested: most active drug evaluated; also recorded: most active agent
Veillonella spp.; [1]
  % I: 23%
  % S: 77%
  MIC50: 1 µg/mL (≈ 2.61 µM)
  MIC90: 8 µg/mL (≈ 20.9 µM)
  MIC range: 0.12 to 8 µg/mL
  Mode: 0.12 µg/mL
Veillonella spp.; Veillonella, read-out: MIC50
  MIC50: 1 µg/mL (≈ 2.61 µM)
Veillonella spp.; Veillonella, read-out: MIC90
  MIC90: 8 µg/mL (≈ 20.9 µM)
Streptococcus spp.
  colonies on selection plates: No Streptococcus spp. or Bacteroides spp. colonies were selected
  Spontaneous Mutation Frequency: ≤ 9.52×10^−10

## COc1c(N2C[C@@H]3CCCN[C@@H]3C2)c(F)cc2c(=O)c(C(=O)O)cn(C3CC3)c12 [moxifloxacin]
Escherichia coli
  MIC range: 0.015 to 128 µg/mL
  Mode: 0.03 µg/mL
Escherichia coli; 0.015 μg/mL
  Cumulative percentage of isolates inhibited at MIC: 4.0%
  Number of test isolates at MIC: 2
Escherichia coli; 0.03 μg/mL
  Cumulative percentage of isolates inhibited at MIC: 34.0%
  Number of test isolates at MIC: 15
Escherichia coli; 0.06 μg/mL
  Cumulative percentage of isolates inhibited at MIC: 52.0%
  Number of test isolates at MIC: 9
Escherichia coli; 0.5 μg/mL
  Cumulative percentage of isolates inhibited at MIC: 60.0%
  Number of test isolates at MIC: 2
Escherichia coli; 2 μg/mL
  Cumulative percentage of isolates inhibited at MIC: 64.0%
  Number of test isolates at MIC: 2
Escherichia coli; 4 μg/mL
  Cumulative percentage of isolates inhibited at MIC: 66.0%
  Number of test isolates at MIC: 1
Escherichia coli; 8 μg/mL
  Cumulative percentage of isolates inhibited at MIC: 70.0%
  Number of test isolates at MIC: 2
Escherichia coli; 16 μg/mL
  Cumulative percentage of isolates inhibited at MIC: 88.0%
  Number of test isolates at MIC: 9
Escherichia coli; 32 μg/mL
  Cumulative percentage of isolates inhibited at MIC: 98.0%
  Number of test isolates at MIC: 5
Escherichia coli; 128 μg/mL
  Cumulative percentage of isolates inhibited at MIC: 100.0%
  Number of test isolates at MIC: 1
Escherichia coli; [2]
  MIC50: 0.06 µg/mL (≈ 0.149 µM)
Escherichia coli; [3]
  MIC90: 32 µg/mL (≈ 79.7 µM)
Escherichia coli; […]
  Number of test isolates at MIC: 1
